Results: patent publication US20210045385A1, “PYRIDAZINONE-SUBSTITUTED KETOXIMES AS HERBICIDES” (FMC Corporation, priority 2018, published 2021)

Tests used:
Format in all cases: in vivo
[1] = test system: ducksalad (Heteranhera limosa); assay: Test B flooded paddy test, visual plant response rating; conditions: 250 g ai/ha, Flood, applied to paddy water, 2-leaf stage, evaluated after 13 to 15 days
How it was run: (§1)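 Plants were raised to the 2-leaf stage, then pots were flooded to 3 cm above the soil and test compound was applied directly into the paddy water. Water depth was held for the whole test; after 13 to 15 days in a greenhouse, responses were scored visually against controls.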

[2] = test system: sedge, umbrella (small-flower umbrella sedge, Cyperus difformis); assay: as above; conditions: 250 g ai/ha, Flood, applied to paddy water, 2-leaf stage, evaluated after 13 to 15 days
How it was run: as §1

[3] = test system: rice (Oryza sativa); assay: as above; conditions: 250 g ai/ha, Flood, applied to paddy water, 2-leaf stage, evaluated after 13 to 15 days
How it was run: as §1

[4] = test system: barnyardgrass (Echinochloa crus-galli); assay: as above; conditions: 250 g ai/ha, Flood, applied to paddy water, 2-leaf stage, evaluated after 13 to 15 days
How it was run: as §1

[5] = test system: ragweed (common ragweed, Ambrosia elatior); assay: Test A preemergence, visual plant response rating; conditions: for Ragweed plant response rating: 125 g ai/ha, preemergence, 0 to 100 scale, 0 no effect, 100 complete control; for Ragweed plant response rating (0 to 100 scale): 500 g ai/ha Preemergence, approx. 10 days
How it was run: (§2)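 Formulated in a non-phytotoxic solvent mixture including surfactant, each test chemical was sprayed onto the soil surface after sowing, or onto seedlings 2 to 10 cm high. Roughly 10 days later, plants were compared with untreated controls and rated for injury from 0 (no effect) to 100 (complete control).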

[6] = test system: pigweed (Amaranthus retroflexus); assay: Test A preemergence, visual plant response rating; conditions: for Pigweed plant response rating: 125 g ai/ha, preemergence, 0 to 100 scale, 0 no effect, 100 complete control; for Pigweed plant response rating (0 to 100 scale): 500 g ai/ha Preemergence, approx. 10 days
How it was run: as §2

[7] = test system: kochia (Kochia scoparia); assay: Test A preemergence, visual plant response rating; conditions: for Kochia plant response rating: 125 g ai/ha, preemergence, 0 to 100 scale, 0 no effect, 100 complete control; for Kochia plant response rating (0 to 100 scale): 500 g ai/ha Preemergence, approx. 10 days
How it was run: as §2

[8] = test system: Italian ryegrass (Lolium multiflorum); assay: Test A preemergence, visual plant response rating; conditions: for Ryegrass, Italian plant response rating: 125 g ai/ha, preemergence, 0 to 100 scale, 0 no effect, 100 complete control; for Ryegrass, Italian plant response rating (0 to 100 scale): 500 g ai/ha Preemergence, approx. 10 days
How it was run: as §2

[9] = test system: barnyardgrass (Echinochloa crus-galli); assay: Test A preemergence, visual plant response rating; conditions: for Barnyardgrass plant response rating: 125 g ai/ha, preemergence, 0 to 100 scale, 0 no effect, 100 complete control; for Barnyardgrass plant response rating (0 to 100 scale): 500 g ai/ha Preemergence, approx. 10 days
How it was run: as §2

[10] = test system: foxtail, giant (giant foxtail, Setaria faberii); assay: Test A preemergence, visual plant response rating; conditions: for Foxtail, Giant plant response rating: 125 g ai/ha, preemergence, 0 to 100 scale, 0 no effect, 100 complete control; for Foxtail, Giant plant response rating (0 to 100 scale): 500 g ai/ha Preemergence, approx. 10 days
How it was run: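 Greenhouse pot test in loam–sand soil mix: compound in a surfactant-containing non-phytotoxic solvent applied preemergence (directed soil spray) or postemergence (one- to two-leaf plants, 2–10 cm). Injury scored visually after ~10 days, 0–100.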

[11] = test system: ragweed (common ragweed, Ambrosia elatior); assay: Test A postemergence, visual plant response rating; conditions: for Ragweed plant response rating (0 to 100 scale): 500 g ai/ha, postemergence, 0 is no effect, 100 is complete control; for Ragweed plant response rating: Postemergence, 125 g ai/ha, 0 to 100 scale (0 no effect, 100 complete control)
How it was run: as §2

[12] = test system: corn (Zea mays); assay: Test A postemergence, visual plant response rating; conditions: for Corn plant response rating (0 to 100 scale): 500 g ai/ha, postemergence, 0 is no effect, 100 is complete control; for Corn plant response rating: Postemergence, 125 g ai/ha, 0 to 100 scale (0 no effect, 100 complete control)
How it was run: as §2

[13] = test system: pigweed (Amaranthus retroflexus); assay: Test A postemergence, visual plant response rating; conditions: for Pigweed plant response rating (0 to 100 scale): 500 g ai/ha, postemergence, 0 is no effect, 100 is complete control; for Pigweed plant response rating: Postemergence, 125 g ai/ha, 0 to 100 scale (0 no effect, 100 complete control)
How it was run: as §2

[14] = test system: kochia (Kochia scoparia); assay: Test A postemergence, visual plant response rating; conditions: for Kochia plant response rating (0 to 100 scale): 500 g ai/ha, postemergence, 0 is no effect, 100 is complete control; for Kochia plant response rating: Postemergence, 125 g ai/ha, 0 to 100 scale (0 no effect, 100 complete control)
How it was run: as §2

[15] = test system: blackgrass (Alopecurus myosuroides); assay: Test A postemergence, visual plant response rating; conditions: for Blackgrass plant response rating (0 to 100 scale): 500 g ai/ha, postemergence, 0 is no effect, 100 is complete control; for Blackgrass plant response rating: Postemergence, 125 g ai/ha, 0 to 100 scale (0 no effect, 100 complete control)
How it was run: as §2

[16] = test system: galium (catchweed bedstraw, Galium aparine); assay: Test A postemergence, visual plant response rating; conditions: for Galium plant response rating (0 to 100 scale): 500 g ai/ha, postemergence, 0 is no effect, 100 is complete control; for Galium plant response rating: Postemergence, 125 g ai/ha, 0 to 100 scale (0 no effect, 100 complete control)
How it was run: as §2

[17] = test system: wheat (Triticum aestivum); assay: Test A postemergence, visual plant response rating; conditions: for Wheat plant response rating (0 to 100 scale): 500 g ai/ha, postemergence, 0 is no effect, 100 is complete control; for Wheat plant response rating: Postemergence, 125 g ai/ha, 0 to 100 scale (0 no effect, 100 complete control)
How it was run: as §2

[18] = test system: Italian ryegrass (Lolium multiflorum); assay: Test A postemergence, visual plant response rating; conditions: for Ryegrass, Italian plant response rating (0 to 100 scale): 500 g ai/ha, postemergence, 0 is no effect, 100 is complete control; for Ryegrass, Italian plant response rating: Postemergence, 125 g ai/ha, 0 to 100 scale (0 no effect, 100 complete control)
How it was run: as §2

[19] = test system: barnyardgrass (Echinochloa crus-galli); assay: Test A postemergence, visual plant response rating; conditions: for Barnyardgrass plant response rating (0 to 100 scale): 500 g ai/ha, postemergence, 0 is no effect, 100 is complete control; for Barnyardgrass plant response rating: Postemergence, 125 g ai/ha, 0 to 100 scale (0 no effect, 100 complete control)
How it was run: as §2

[20] = test system: foxtail, giant (giant foxtail, Setaria faberii); assay: Test A postemergence, visual plant response rating; conditions: for Foxtail, Giant plant response rating (0 to 100 scale): 500 g ai/ha, postemergence, 0 is no effect, 100 is complete control; for Foxtail, Giant plant response rating: Postemergence, 125 g ai/ha, 0 to 100 scale (0 no effect, 100 complete control)
How it was run: as §2

Structure (SMILES) | Plant response rating, Ducksalad (0 to 100 scale, 0 is no effect, 100 is complete control) [1] | Plant response rating, Sedge, Umbrella (0 to 100 scale, 0 is no effect, 100 is complete control) [2] | Plant response rating, Rice (0 to 100 scale, 0 is no effect, 100 is complete control) [3] | Plant response rating, Barnyardgrass (0 to 100 scale, 0 is no effect, 100 is complete control) [4] | Ragweed plant response rating [5] | Ragweed plant response rating (0 to 100 scale) [5] | Pigweed plant response rating [6] | Pigweed plant response rating (0 to 100 scale) [6] | Kochia plant response rating [7] | Kochia plant response rating (0 to 100 scale) [7] | Ryegrass, Italian plant response rating [8] | Ryegrass, Italian plant response rating (0 to 100 scale) [8] | Barnyardgrass plant response rating [9] | Barnyardgrass plant response rating (0 to 100 scale) [9] | Foxtail, Giant plant response rating [10] | Foxtail, Giant plant response rating (0 to 100 scale) [10] | Ragweed plant response rating (0 to 100 scale) [11] | Ragweed plant response rating [11] | Corn plant response rating (0 to 100 scale) [12] | Corn plant response rating [12] | other results
C#CCO/N=C(/c1c(O)c(C)nn(C)c1=O)c1cc(Br)cc2ccccc12 [Compound 112, 4-[(E)-(3-bromo-1-naphthalenyl)[(2-propyn-1-yloxy)imino]methyl]-5-hydroxy-2,6-dimethyl-3(2H)-pyridazinone] | 60 | 60 | 0 | 55 | 90 | 90 | 100 | 100 | 50 | 80 | 100 | 100 | 100 | 100 | 100 | 100 | 100 | 100 | 90 | 20 | Pigweed plant response rating (0 to 100 scale) [13]: 100; Pigweed plant response rating [13]: 90; Kochia plant response rating (0 to 100 scale) [14]: 90; Kochia plant response rating [14]: 70; Blackgrass plant response rating (0 to 100 scale) [15]: 100; Blackgrass plant response rating [15]: 100; Galium plant response rating (0 to 100 scale) [16]: 100; Galium plant response rating [16]: 100; Wheat plant response rating (0 to 100 scale) [17]: 70; Wheat plant response rating [17]: 50; Ryegrass, Italian plant response rating (0 to 100 scale) [18]: 100; Ryegrass, Italian plant response rating [18]: 90; Barnyardgrass plant response rating (0 to 100 scale) [19]: 90; Barnyardgrass plant response rating [19]: 80; Foxtail, Giant plant response rating (0 to 100 scale) [20]: 90; Foxtail, Giant plant response rating [20]: 90
C=CCO/N=C(/c1c(O)c(C)nn(C)c1=O)c1ccc(F)c2ccccc12 [Compound 87] | 0 | 0 | 0 | 0 | 90 | 90 | 30 | 100 | 0 | 30 | 90 | 100 | 70 | 90 | 90 | 100 | 90 | 100 | 30 | 0 | Pigweed plant response rating (0 to 100 scale) [13]: 90; Pigweed plant response rating [13]: 70; Kochia plant response rating (0 to 100 scale) [14]: 70; Kochia plant response rating [14]: 40; Blackgrass plant response rating (0 to 100 scale) [15]: 90; Blackgrass plant response rating [15]: 80; Galium plant response rating (0 to 100 scale) [16]: 100; Galium plant response rating [16]: 80; Wheat plant response rating (0 to 100 scale) [17]: 60; Wheat plant response rating [17]: 40; Ryegrass, Italian plant response rating (0 to 100 scale) [18]: 100; Ryegrass, Italian plant response rating [18]: 80; Barnyardgrass plant response rating (0 to 100 scale) [19]: 80; Barnyardgrass plant response rating [19]: 60; Foxtail, Giant plant response rating (0 to 100 scale) [20]: 80; Foxtail, Giant plant response rating [20]: 70
